Four compounds from patent US11857584B2, “Oncolytic virus growth method and antitumor agent” (KABUSHIKI KAISHA YAKULT HONSHA, priority 2017, dated 2024) can be followed below.

The test system of one data set is CVA11. In words: Promotion of CVA11 proliferation (virus titer) in WiDr cells. In kind it is cell-based, coxsackievirus A11. The conditions noted are these: then CVA11 MOI 0.01, about 30 hours, t-test.
In another data set the test system is CVB3. In words: Promotion of CVB3 proliferation (virus titer) in WiDr cells. Type of data set: cell-based, coxsackievirus B3.
The test system of data set [1] is DAF (decay accelerating factor). Description: Virus receptor expression by real-time PCR in WiDr cells, DAF. Type of data set: cell-based, human. The settings on record: oxaliplatin 50 μM about 42 hours, or CVA11 added about 20 hours after seeding, t-test. The protocol: (§1) The cultured oxaliplatin-resistant colon cancer cell line (WiDr) was suspended in DMEM medium at 3×10^6 cells/mL. To each well of a 96-well plate, 100 μl of the obtained cell suspension was dispensed and the cells were seeded at 3×10^5 cells/well. […] Thereafter, the plate was allowed to stand for about 42 hours at 37° C., 5% CO2, and then mRNA was collected to prepare cDNA. […] The expressions of DAF (decay accelerating factor) and ICAM-1 (intercellular adhesion molecule 1) were compared by real-time PCR. The t-test was used as the test.
For orientation: In qPCR the cycle at which signal appears reflects the starting amount.

Data set [2] deals with ICAM-1 (intercellular adhesion molecule 1). Description: Virus receptor expression by real-time PCR in WiDr cells, ICAM-1. Type of data set: cell-based, human. The conditions noted are these: oxaliplatin 50 μM about 42 hours, or CVA11 added about 20 hours after seeding, t-test. The method, then:
as §1

A short description of data set [3]: Body weight change (adverse event) in WiDr-bearing nude mice. The conditions noted are these: oxaliplatin 100 μg i.p. day 1; CVA11 5×10^7 PFU intratumoral days 2, 4, 6, 8, 10. The protocol: WiDr was washed with PBS and suspended in OPTI-MEM I at 5.0×10^7 cells/mL. 100 μl of the suspension containing WiDr was injected subcutaneously with a 27 G needle into the right flank of BALB/c nude mice of 6-8 weeks old. […] The tumor volume was calculated by major axis×minor axis×minor axis×0.5. The test was conducted using 5 mice in each group, and the t-test was used as the test.

The subject of a further data set is AAV. In words: Promotion of AAV proliferation (virus copy number, real-time PCR) in WiDr cells. In kind it is cell-based. The method, then:
pAAV-CMV Vector (manufactured by Takara Bio Co., Ltd.) was used as AAV. pAAV-CMV Vector was prepared using AAVpro (registered trademark) Helper Free System (manufactured by Takara Bio Co., Ltd.). The collected supernatant (virus solution) was stored at −80° C.
The cultured oxaliplatin-resistant colon cancer cell line (WiDr) was suspended in DMEM medium at […]. To each well of a 96-well plate, 100 μl of the obtained cell suspension was dispensed and the cells were seeded at 3×10^5 cells/well. […] Subsequently, the plate was allowed to stand for about 24 hours at 37° C., 5% CO2, and then AAV was added thereto at a MOI of 0.01. After the plate was allowed to stand for about 30 hours at 37° C., 5% CO2, virus copy numbers were measured using AAVpro (registered trademark) Titration Kit (for Real Time PCR) Ver.2 (manufactured by Takara Bio Co., Ltd.). The t-test was used as the test.

`CCc1c2c(nc3ccc(O)cc13)-c1cc3c(c(=O)n1C2)COC(=O)[C@]3(O)CC` [SN-38, 7-ethyl-10-hydroxycamptothecin]: the “CVA11 virus load (virus titer)” value in the data set with CVA11 (SN-38 1.0, 5.0 or 50 μM) was “significant increase in CVA11 virus load”.
For the compound `N.N.[Cl][Pt][Cl]` [cisplatin], the “CVB3 virus load (virus titer)” value with CVB3 (cisplatin 0.5 or 1.0 μM, then CVB3 MOI 0.01) is “no increase in CVB3 virus load was observed”.
In the case of `O=C1[O][Pt]2([NH][C@@H]3CCCC[C@H]3[NH]2)[O]C1=O` [oxaliplatin], the “CVA11 virus load (virus titer)” value in the data set on CVA11 (oxaliplatin 50 μM, vs CVA11 only) is “significant increase in CVA11 virus load”. For the same compound, the “expression of DAF (real-time PCR)” value in data set [1] is “significantly increased”. For the same compound, the “expression of ICAM-1 (real-time PCR)” value in data set [2] is given as “significantly increased”. For the same compound, in data set [3], the “body weight loss, compared with untreated group” value is listed as “no significant weight loss was observed”. Further, the “CVB3 virus load (virus titer)” value is “significant increase” in the data set with CVB3 (oxaliplatin 1 μM, then CVB3 MOI 0.01, t-test) and “increase in CVB3 virus load was observed” in the data set with CVB3 (oxaliplatin 0.5 or 1.0 μM, then CVB3 MOI 0.01, about 30 hours). Moreover, the “copy number of AAV” value in the data set with AAV (oxaliplatin 0.25, 0.5, 1.0 or 2.5 μM, then AAV MOI 0.01, about 30 hours, t-test) is “significant, increase in the copy number of AAV”; with AAV (oxaliplatin 0.25 to 1.0 μM, then AAV MOI 0.01), “remarkable increase”.
As for `O=c1[nH]cc(F)c(=O)[nH]1` [5-FU, 5-fluorouracil], the “CVA11 virus load (virus titer)” value in the data set on CVA11 (5-FU 50 μM) is reported as “significant increase in CVA11 virus load”.
